Measurements published in the supplement of paper PMC10307832.

How the values were obtained:
Assay in all cases: relative viability (nuclei count vs DMSO), 5 days (fraction); higher = more cells survive
NCI-H1755 = settings: first compound 0.5 µM
Summary of the method: (§1)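 Nuclei were stained with Hoechst during a one-step fixation (final 0.05% Triton X-100, 1% formaldehyde, 1 ug/ml Hoechst) carried out 5 days after dosing, then counted on 4× images. The cells, lung cancer lines in 1536-well plates, had been dosed by pin tool the day after seeding with one drug alone or a fixed anchor-drug dose plus five library-drug doses (not always all listed) in √10 steps. Relative viability is the nuclei count in treated wells divided by that in vehicle wells, and each value is the median of duplicate plates.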

LCLC-103H = system: LCLC-103H
Summary of the method: as §1

NCI-H441 = system: NCI-H441
Summary of the method: as §1

NCI-H596 = system: NCI-H596
Summary of the method: as §1

NCI-H650 = system: NCI-H650
Summary of the method: as §1

RERF-LC-KJ = system: RERF-LC-KJ
Summary of the method: as §1

NCI-H322M = system: NCI-H322M
Summary of the method: as §1

NCI-H460 = system: NCI-H460
Summary of the method: as §1

NCI-H1792 = system: NCI-H1792
Summary of the method: as §1

NCI-H1651 = system: NCI-H1651
Summary of the method: as §1

NCI-H2170 = system: NCI-H2170
Summary of the method: as §1

NCI-H1355 = system: NCI-H1355
Summary of the method: as §1

CC1(C)CCC(c2ccc(Cl)cc2)=C(CN2CCN(c3ccc(C(=O)NS(=O)(=O)c4ccc(N[C@H](CCN5CCOCC5)CSc5ccccc5)c(S(=O)(=O)C(F)(F)F)c4)cc3)CC2)C1 [Navitoclax] + CS(=O)(=O)N1CCN(Cc2cc3nc(-c4cccc5[nH]ncc45)nc(N4CCOCC4)c3s2)CC1 [Pictilisib] (partner 1 µM) showed a relative viability (NCI-H1755) of 0.352, a relative viability (LCLC-103H; first compound 0.005 µM) of 0.588 and a relative viability (LCLC-103H; first compound 0.01581 µM) of 0.611. For the same molecule, the relative viability (LCLC-103H; first compound 0.05 µM) was 0.664, the relative viability (LCLC-103H; first compound 0.1581 µM) was 0.611 and the relative viability (LCLC-103H; first compound 0.5 µM) was 0.799. The relative viability (NCI-H441; first compound 0.005 µM) was 0.441, the relative viability (NCI-H441; first compound 0.01581 µM) was 0.606 and the relative viability (NCI-H441; first compound 0.05 µM) was 0.433. It also gave a relative viability (NCI-H441; first compound 0.1581 µM) of 0.529, a relative viability (NCI-H441; first compound 0.5 µM) of 0.458 and a relative viability (NCI-H596; first compound 0.005 µM) of 0.405. It also gave a relative viability (NCI-H596; first compound 0.01581 µM) of 0.399, a relative viability (NCI-H596; first compound 0.05 µM) of 0.398 and a relative viability (NCI-H596; first compound 0.1581 µM) of 0.308. The relative viability (NCI-H596; first compound 0.5 µM) was 0.218, the relative viability (NCI-H650; first compound 0.005 µM) was 0.765 and the relative viability (NCI-H650; first compound 0.01581 µM) was 0.948. It also gave a relative viability (NCI-H650; first compound 0.05 µM) of 0.869, a relative viability (NCI-H650; first compound 0.1581 µM) of 0.972 and a relative viability (NCI-H650; first compound 0.5 µM) of 0.448. The relative viability (RERF-LC-KJ; first compound 0.005 µM) was 0.446, the relative viability (RERF-LC-KJ; first compound 0.01581 µM) was 0.55 and the relative viability (RERF-LC-KJ; first compound 0.05 µM) was 0.589. The relative viability (RERF-LC-KJ; first compound 0.1581 µM) was 0.476, the relative viability (RERF-LC-KJ; first compound 0.5 µM) was 0.568 and the relative viability (NCI-H322M; first compound 0.005 µM) was 0.485. The relative viability (NCI-H322M; first compound 0.01581 µM) was 0.526, the relative viability (NCI-H322M; first compound 0.05 µM) was 0.565 and the relative viability (NCI-H322M; first compound 0.1581 µM) was 0.516. The relative viability (NCI-H322M; first compound 0.5 µM) was 0.562, the relative viability (NCI-H460; first compound 0.005 µM) was 0.348 and the relative viability (NCI-H460; first compound 0.01581 µM) was 0.419. It also gave a relative viability (NCI-H460; first compound 0.1581 µM) of 0.326, a relative viability (NCI-H460; first compound 0.5 µM) of 0.334 and a relative viability (NCI-H1792; first compound 0.005 µM) of 0.307. The relative viability (NCI-H1792; first compound 0.01581 µM) was 0.283, the relative viability (NCI-H1792; first compound 0.05 µM) was 0.163 and the relative viability (NCI-H1792; first compound 0.1581 µM) was 0.285. For the same molecule, the relative viability (NCI-H1792; first compound 0.5 µM) was 0.29, the relative viability (NCI-H1651; first compound 0.005 µM) was 0.592 and the relative viability (NCI-H1651; first compound 0.01581 µM) was 0.687. It also gave a relative viability (NCI-H1651; first compound 0.1581 µM) of 0.561, a relative viability (NCI-H1651; first compound 0.5 µM) of 0.559 and a relative viability (NCI-H2170; first compound 0.005 µM) of 0.306. It also gave a relative viability (NCI-H2170; first compound 0.01581 µM) of 0.327, a relative viability (NCI-H2170; first compound 0.05 µM) of 0.334 and a relative viability (NCI-H2170; first compound 0.1581 µM) of 0.243. It also gave a relative viability (NCI-H2170; first compound 0.5 µM) of 0.203, a relative viability (NCI-H1355; first compound 0.005 µM) of 0.461 and a relative viability (NCI-H1355; first compound 0.01581 µM) of 0.42. It also gave a relative viability (NCI-H1355; first compound 0.05 µM) of 0.416, a relative viability (NCI-H1355; first compound 0.1581 µM) of 0.497 and a relative viability (NCI-H1355; first compound 0.5 µM) of 0.427.
